# Test results taken from ChEMBL document CHEMBL2040789, “Optimization of the Central Core of Indolinone-Acetic Acid-Based CRTH2 (DP2) Receptor Antagonists” (ACS Med Chem Lett, 2011).
# How the values were obtained:
# [1] = biological target: T1, Prostaglandin D2 receptor 2 (Homo sapiens, UniProt Q9Y5Y4); test: Displacement of [3H]PGD2 from human CRTH2 receptor expressed in CHO cells after 90 mins by scintillation proximity assay; type: cell-based
# T1 sequence (Q9Y5Y4 whole entry): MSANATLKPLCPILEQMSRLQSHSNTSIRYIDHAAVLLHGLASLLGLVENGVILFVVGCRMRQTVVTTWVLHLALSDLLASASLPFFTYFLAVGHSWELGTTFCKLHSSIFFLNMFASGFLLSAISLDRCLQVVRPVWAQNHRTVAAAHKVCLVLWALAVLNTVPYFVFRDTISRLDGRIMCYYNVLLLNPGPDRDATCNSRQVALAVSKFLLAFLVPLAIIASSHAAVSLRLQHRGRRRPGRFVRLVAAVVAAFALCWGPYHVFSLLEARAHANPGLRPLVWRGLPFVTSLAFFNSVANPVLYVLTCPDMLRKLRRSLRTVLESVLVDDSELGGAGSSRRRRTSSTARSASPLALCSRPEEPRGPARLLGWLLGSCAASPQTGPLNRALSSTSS
# [2] = Fraction unbound in human plasma; type: ADME, cell-free
# [3] = Fraction unbound in rat plasma; type: ADME, cell-free
# [4] = Fraction unbound in mouse plasma; type: ADME, cell-free
# [5] = Apparent permeability of the compound in human Caco2 cells; type: ADME, cell-based; settings: Caco-2
# [6] = Clearance in Sprague-Dawley rat at 1 mg/kg, iv and 5 mg/kg, po; type: ADME, organism-based; settings: in vivo
# Liver microsomes = test: Clearance in human liver microsomes; type: ADME, Microsome
# Hepatocyte [7] = test: Clearance in human hepatocytes; type: ADME, cell-based
# [8] = Oral bioavailability in Sprague-Dawley rat at 5 mg/kg; type: ADME, organism-based; settings: in vivo
# [9] = Oral bioavailability in C57BL/6 mouse at 5 mg/kg; type: ADME, organism-based; settings: in vivo
# [10] = Oral bioavailability in guinea pig; type: ADME, organism-based, Cavia porcellus; settings: in vivo
# [11] = Oral bioavailability in monkey; type: ADME, organism-based, Macaca mulatta; settings: rhesus monkey, in vivo
# [12] = Oral bioavailability in dog; type: ADME, organism-based, Canis lupus familiaris; settings: in vivo
# [13] = Solubility of the compound in simulated gastric fluid; type: physicochemical
# [14] = Bioavailability in Sprague-Dawley rat administered by portal vein; type: ADME, organism-based; settings: in vivo
# [15] = Drug degradation at pH 8 after 24 hrs; type: physicochemical; settings: buffer, read-out: Drug degradation
# [16] = Drug degradation at pH 9 after 24 hrs; type: physicochemical; settings: buffer, read-out: Drug degradation
# [17] = Drug degradation in human plasma after 24 hrs; type: ADME, cell-free; settings: read-out: Drug degradation
# [18] = Bioavailability in Sprague-Dawley rat after intraduodenal administration; type: ADME, organism-based; settings: in vivo
# [19] = Clearance in C57BL/6 mouse at 1 mg/kg, iv and 5 mg/kg, po; type: ADME, organism-based; settings: in vivo
# [20] = AUC in C57BL/6 mouse at 5 mg/kg, po; type: ADME, organism-based; set-up: dose 5 mg/kg, route oral; settings: plasma
# [21] = Solubility of the compound in fasted state simulated intestinal fluid
# [22] = Drug degradation at pH 7.4 after 24 hrs; type: physicochemical; settings: buffer, read-out: Drug degradation
# [23] = Half life in human plasma; type: ADME, cell-free
# [24] = Stability assessed as drug degradation by measuring 2,2'-(5-chloro-3-(2-fluorobenzylcarbamoyl)-2-oxoindoline-1,3-diyl)diacetic acid formation at pH > 6 after 24 hrs; type: physicochemical
# [25] = Stability assessed as drug degradation by measuring 2-(5-chloro-3-(2-(2-fluorobenzylamino)-2-oxoethyl)-2-oxoindolin-1-yl)acetic acid formation at pH > 6 after 24 hrs; type: physicochemical
# [26] = Intrinsic clearance in rat liver microsomes; type: ADME, Microsome; settings: read-out: CLH
# Mus musculus = test: Antiinflammatory activity in ovalbumin-sensitised Balb/c mouse assessed as reduction in ovalbumin-induced eosinophil count in bronchoalveolar lavage fluid at 30 mg/kg, po administered 1 hr before and 7 hrs after ovalbumin challenge measured after 8 hrs by haemocytometeric analysis; type: functional; settings: Lung
# [27] = biological target: T2, Prostaglandin E2 receptor EP1 subtype (Homo sapiens) (UniProt P34995); test: Inhibition of EP1 at 10 uM
# T2 sequence (whole entry): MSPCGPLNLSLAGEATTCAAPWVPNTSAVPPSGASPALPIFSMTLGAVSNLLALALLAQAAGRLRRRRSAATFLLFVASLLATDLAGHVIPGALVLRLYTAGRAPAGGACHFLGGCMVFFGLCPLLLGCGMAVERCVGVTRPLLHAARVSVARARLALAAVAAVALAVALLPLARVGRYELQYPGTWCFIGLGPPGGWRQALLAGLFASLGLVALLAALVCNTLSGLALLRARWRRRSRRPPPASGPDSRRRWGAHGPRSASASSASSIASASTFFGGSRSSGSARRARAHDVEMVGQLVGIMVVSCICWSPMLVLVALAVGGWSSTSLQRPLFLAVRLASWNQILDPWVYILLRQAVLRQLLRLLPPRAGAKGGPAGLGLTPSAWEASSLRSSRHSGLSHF
# [28] = biological target: Prostaglandin E2 receptor EP2 subtype (Homo sapiens) (UniProt P43116); test: Inhibition of EP2 at 10 uM
# [29] = biological target: T3, Prostaglandin D2 receptor (Homo sapiens) (UniProt Q13258); test: Inhibition of DP1 expressed in human HEK cells at 20 uM; type: cell-based; settings: HEK293
# T3 sequence (whole entry): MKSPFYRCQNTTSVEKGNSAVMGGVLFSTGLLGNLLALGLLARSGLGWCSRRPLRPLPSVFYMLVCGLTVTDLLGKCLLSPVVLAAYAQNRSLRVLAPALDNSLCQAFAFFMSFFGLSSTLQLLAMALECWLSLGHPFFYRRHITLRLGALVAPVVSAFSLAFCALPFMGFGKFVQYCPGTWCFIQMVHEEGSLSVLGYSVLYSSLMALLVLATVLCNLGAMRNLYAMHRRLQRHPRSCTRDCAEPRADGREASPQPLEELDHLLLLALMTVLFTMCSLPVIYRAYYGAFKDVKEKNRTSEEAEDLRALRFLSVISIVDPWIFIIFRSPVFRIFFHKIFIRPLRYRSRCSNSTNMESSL
# [30] = biological target: T3, Prostaglandin D2 receptor (Homo sapiens); test: Antagonist activity at DP1 receptor expressed in HEK cells assessed as inhibition of PGD2-induced cAMP production at 20 uM; type: functional, cell-based; settings: HEK293
# [31] = biological target: Voltage-gated inwardly rectifying potassium channel KCNH2 (Homo sapiens, UniProt Q12809); test: Inhibition of human Erg
# Hepatocyte [32] = test: Cytotoxicity against primary rat hepatocytes up to 750 uM; type: cell-based
# HepG2 = test: Cytotoxicity against human HepG2 cells up to 750 uM; type: cell-based
# Cytochrome P450 1A2 = biological target: T4, Cytochrome P450 1A2 (Homo sapiens, UniProt P05177); test: Inhibition of CYP1A2; type: ADME
# T4 sequence (P05177 whole entry): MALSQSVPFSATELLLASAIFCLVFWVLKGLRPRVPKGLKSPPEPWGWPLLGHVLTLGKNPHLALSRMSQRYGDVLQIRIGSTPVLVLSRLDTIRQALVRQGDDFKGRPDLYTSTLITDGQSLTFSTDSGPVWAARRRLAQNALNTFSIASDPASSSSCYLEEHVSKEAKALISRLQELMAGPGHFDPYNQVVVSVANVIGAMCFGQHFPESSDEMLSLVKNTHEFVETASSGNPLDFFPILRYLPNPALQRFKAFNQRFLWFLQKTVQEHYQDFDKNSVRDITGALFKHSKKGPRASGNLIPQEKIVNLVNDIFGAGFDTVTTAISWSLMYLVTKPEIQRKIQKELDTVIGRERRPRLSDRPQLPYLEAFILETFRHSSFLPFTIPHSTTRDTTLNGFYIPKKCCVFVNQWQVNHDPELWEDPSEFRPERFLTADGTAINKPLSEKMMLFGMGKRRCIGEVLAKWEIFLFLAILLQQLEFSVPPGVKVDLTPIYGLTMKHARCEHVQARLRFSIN
# Cytochrome P450 2C19 = Cytochrome P450 2C19 (Homo sapiens, UniProt P33261); test: Inhibition of CYP2C19; type: ADME
# Cytochrome P450 2C8 = biological target: T5, Cytochrome P450 2C8 (Homo sapiens, UniProt P10632); test: Inhibition of CYP2C8; type: ADME
# T5 sequence (P10632 whole entry): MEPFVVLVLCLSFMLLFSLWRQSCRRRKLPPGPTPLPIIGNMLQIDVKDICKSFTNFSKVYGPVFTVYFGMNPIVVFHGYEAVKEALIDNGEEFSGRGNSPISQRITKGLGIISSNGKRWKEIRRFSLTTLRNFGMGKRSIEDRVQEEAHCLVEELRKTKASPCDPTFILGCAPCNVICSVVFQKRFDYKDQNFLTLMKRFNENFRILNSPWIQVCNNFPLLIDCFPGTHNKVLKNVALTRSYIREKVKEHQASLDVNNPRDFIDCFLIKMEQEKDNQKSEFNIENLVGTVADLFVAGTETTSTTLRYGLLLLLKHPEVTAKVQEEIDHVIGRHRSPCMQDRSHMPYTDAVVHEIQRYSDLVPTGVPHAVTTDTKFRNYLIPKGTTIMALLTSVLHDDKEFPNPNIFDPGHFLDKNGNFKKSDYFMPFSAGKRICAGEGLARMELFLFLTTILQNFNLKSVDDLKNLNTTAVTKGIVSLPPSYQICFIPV
# Cytochrome P450 2C9 = Cytochrome P450 2C9 (Homo sapiens, UniProt P11712); test: Inhibition of CYP2C9; type: ADME
# Cytochrome P450 2D6 = Cytochrome P450 2D6 (Homo sapiens, UniProt P10635); test: Inhibition of CYP2D6; type: ADME
# Cytochrome P450 3A4 = Cytochrome P450 3A4 (Homo sapiens, UniProt P08684); test: Inhibition of CYP3A4; type: ADME
# [33] = Intrinsic clearance in human liver microsomes; type: ADME, Microsome; settings: read-out: CLH
# [34] = biological target: Aldo-keto reductase family 1 member B1 (Homo sapiens, UniProt P15121); test: Inhibition of aldose reductase
# Sequence of Cytochrome P450 2C9 (P11712 whole entry): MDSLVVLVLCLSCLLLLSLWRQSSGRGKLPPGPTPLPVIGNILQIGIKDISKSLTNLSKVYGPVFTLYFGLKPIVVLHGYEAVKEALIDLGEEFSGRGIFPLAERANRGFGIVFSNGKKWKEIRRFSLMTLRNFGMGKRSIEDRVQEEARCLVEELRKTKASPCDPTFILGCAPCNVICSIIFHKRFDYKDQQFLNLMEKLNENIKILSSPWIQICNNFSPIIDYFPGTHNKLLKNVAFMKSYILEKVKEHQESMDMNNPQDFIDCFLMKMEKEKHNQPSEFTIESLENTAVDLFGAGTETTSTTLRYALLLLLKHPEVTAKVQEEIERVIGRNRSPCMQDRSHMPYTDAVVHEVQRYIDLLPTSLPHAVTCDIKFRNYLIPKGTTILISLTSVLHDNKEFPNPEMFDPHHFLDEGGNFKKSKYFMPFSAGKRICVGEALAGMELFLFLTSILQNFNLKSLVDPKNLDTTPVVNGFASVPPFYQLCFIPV
# Sequence of Cytochrome P450 2C19 (P33261 whole entry): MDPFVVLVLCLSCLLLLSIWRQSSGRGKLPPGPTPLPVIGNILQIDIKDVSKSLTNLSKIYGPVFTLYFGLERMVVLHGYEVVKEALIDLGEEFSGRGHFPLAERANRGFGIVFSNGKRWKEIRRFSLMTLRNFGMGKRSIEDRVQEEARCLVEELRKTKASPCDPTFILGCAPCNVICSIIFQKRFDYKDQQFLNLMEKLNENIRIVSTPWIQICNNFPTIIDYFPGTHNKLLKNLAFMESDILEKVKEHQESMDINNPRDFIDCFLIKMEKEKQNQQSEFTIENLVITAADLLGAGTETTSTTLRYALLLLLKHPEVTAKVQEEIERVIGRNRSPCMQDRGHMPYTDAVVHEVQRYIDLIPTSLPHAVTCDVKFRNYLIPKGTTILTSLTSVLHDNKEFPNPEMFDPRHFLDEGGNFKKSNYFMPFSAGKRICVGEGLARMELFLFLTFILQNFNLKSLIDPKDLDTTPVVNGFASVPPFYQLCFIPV
# Sequence of Prostaglandin E2 receptor EP2 subtype (Homo sapiens) (P43116 whole entry): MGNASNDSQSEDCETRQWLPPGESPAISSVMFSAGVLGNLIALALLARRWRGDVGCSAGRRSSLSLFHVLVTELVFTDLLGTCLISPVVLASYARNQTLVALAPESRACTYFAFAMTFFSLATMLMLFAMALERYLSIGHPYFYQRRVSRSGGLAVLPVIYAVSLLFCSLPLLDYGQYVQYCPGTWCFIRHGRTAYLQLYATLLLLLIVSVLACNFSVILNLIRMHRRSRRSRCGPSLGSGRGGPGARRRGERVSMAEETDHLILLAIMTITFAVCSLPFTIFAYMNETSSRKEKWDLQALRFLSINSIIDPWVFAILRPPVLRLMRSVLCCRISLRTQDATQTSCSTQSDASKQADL
# Sequence of Cytochrome P450 2D6 (P10635 whole entry): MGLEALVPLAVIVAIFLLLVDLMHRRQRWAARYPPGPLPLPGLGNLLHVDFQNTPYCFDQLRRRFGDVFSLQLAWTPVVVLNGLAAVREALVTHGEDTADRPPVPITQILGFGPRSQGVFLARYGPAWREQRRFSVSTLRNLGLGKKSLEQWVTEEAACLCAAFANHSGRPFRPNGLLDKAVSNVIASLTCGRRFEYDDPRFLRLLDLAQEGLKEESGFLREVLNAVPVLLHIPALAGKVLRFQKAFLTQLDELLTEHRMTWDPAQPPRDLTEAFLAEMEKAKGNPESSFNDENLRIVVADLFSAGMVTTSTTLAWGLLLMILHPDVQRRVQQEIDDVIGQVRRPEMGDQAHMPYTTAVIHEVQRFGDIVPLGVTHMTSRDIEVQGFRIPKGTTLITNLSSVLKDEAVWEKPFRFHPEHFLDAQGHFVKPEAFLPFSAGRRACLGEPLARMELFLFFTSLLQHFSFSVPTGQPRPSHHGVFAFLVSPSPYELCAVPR
# Sequence of Cytochrome P450 3A4 (P08684 whole entry): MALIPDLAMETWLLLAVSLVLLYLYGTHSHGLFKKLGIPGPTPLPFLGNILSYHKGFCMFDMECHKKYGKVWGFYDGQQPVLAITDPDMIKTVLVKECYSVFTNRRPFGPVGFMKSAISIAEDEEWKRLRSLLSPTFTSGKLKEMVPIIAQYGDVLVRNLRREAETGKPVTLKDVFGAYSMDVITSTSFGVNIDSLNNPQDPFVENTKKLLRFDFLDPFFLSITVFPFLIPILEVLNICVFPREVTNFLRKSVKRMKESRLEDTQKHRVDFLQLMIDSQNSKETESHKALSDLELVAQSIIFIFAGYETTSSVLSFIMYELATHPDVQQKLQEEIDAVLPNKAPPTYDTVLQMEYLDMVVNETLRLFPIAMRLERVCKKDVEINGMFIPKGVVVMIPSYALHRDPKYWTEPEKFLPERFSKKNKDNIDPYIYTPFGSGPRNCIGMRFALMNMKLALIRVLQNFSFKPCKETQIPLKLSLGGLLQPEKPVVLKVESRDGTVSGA
# Sequence of Voltage-gated inwardly rectifying potassium channel KCNH2 (Q12809 whole entry): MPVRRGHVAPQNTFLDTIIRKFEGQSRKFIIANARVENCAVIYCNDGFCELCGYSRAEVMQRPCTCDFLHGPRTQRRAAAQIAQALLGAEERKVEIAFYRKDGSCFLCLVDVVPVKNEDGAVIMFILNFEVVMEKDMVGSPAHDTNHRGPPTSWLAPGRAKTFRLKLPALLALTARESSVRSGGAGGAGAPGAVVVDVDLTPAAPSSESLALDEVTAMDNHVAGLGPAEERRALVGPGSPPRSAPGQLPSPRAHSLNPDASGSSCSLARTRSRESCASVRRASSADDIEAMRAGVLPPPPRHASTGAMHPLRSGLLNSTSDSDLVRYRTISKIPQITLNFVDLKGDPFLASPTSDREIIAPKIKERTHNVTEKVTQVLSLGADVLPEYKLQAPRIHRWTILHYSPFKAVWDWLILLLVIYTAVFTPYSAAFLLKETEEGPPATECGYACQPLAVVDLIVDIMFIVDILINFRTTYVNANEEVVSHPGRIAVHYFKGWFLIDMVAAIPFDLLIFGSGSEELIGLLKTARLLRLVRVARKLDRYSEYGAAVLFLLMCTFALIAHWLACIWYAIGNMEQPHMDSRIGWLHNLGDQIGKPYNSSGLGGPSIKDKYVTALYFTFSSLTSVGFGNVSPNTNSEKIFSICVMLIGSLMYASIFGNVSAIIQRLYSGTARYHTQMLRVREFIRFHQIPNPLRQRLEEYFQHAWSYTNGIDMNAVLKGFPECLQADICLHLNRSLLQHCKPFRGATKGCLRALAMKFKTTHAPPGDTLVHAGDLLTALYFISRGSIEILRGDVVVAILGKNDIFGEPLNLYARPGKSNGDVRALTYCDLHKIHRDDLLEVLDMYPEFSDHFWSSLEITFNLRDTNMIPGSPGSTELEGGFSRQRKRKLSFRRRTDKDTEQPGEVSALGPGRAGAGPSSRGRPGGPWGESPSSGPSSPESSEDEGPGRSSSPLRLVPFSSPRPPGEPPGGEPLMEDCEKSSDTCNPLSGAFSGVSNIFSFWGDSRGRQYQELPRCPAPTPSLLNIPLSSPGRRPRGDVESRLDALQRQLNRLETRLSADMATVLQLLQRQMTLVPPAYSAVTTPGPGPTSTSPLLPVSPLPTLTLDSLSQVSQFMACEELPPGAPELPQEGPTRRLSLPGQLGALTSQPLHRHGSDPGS
compound,measurement,setting,value
Cc1onc(-c2ccccc2)c1CN1C(=O)N(C)C2(C1=O)C(=O)N(CC(=O)O)c1ccc(Cl)cc12 (stereo not drawn),Ki,[1],110 nM
Cc1onc(-c2ccccc2)c1CN1C(=O)NC2(C1=O)C(=O)N(CC(=O)O)c1ccc(Cl)cc12 (stereo not drawn),Ki,[1],7 nM
CC(C)c1nc(CN2C(=O)N(C)C3(C2=O)C(=O)N(CC(=O)O)c2ccc(Cl)cc23)cs1 (stereo not drawn),Ki,[1],490 nM
O=C(O)CN1C(=O)[C@@]2(NC(=O)N(Cc3cc(Cl)ccc3F)C2=O)c2cc(Cl)ccc21,Ki,[1],15 nM
same,fraction unbound,[2],0.023
same,fraction unbound,[3],0.03
same,fraction unbound,[4],0.063
same,Papp,[5],0.2 ×10⁻⁶ cm/s
same,clearance,[6],2.5 mL/min/kg
same,CLH,Liver microsomes,< 1 µg/mL/h
same,CLH,Hepatocyte [7],2 µg/mL/h
same,bioavailability,[8],6%
same,bioavailability,[9],9%
same,bioavailability,[10],7%
same,bioavailability,[11],10%
same,bioavailability,[12],71%
same,solubility,[13],10 µg/mL
same,bioavailability,[14],90%
same,degraded at 24 h,[15],< 5%
same,degraded at 24 h,[16],45%
same,metabolised at 24 h,[17],< 15%
same,bioavailability,[18],11%
same,clearance,[19],13.3 mL/min/kg
same,AUC,[20],580 ng·h/mL
same,solubility,[21],1500 µg/mL
O=C(O)CN1C(=O)[C@@]2(CC(=O)N(Cc3ccccc3F)C2=O)c2cc(Cl)ccc21,degraded at 24 h,[22],25%
same,degraded at 24 h,[15],50%
same,half-life,[23],1 h
same,Stability,[24],Unstable
same,Stability,[25],Unstable
CN1C(=O)N(Cc2cc(Cl)ccc2F)C(=O)[C@]12C(=O)N(CC(=O)O)c1ccc(Cl)cc12,Ki,[1],35 nM
same,fraction unbound,[2],0.02
same,fraction unbound,[3],0.019
same,fraction unbound,[4],0.05
same,Papp,[5],0.6 ×10⁻⁶ cm/s
same,bioavailability,[8],37%
same,bioavailability,[9],39%
same,microsomal CLint,[26],< 10 µL/min/mg
same,inhibition in vivo at 30 mg/kg,Mus musculus,67%
same,inhibition,[27],32%
same,inhibition,[28],34%
same,inhibition,[29],< 30%
same,inhibition,[30],< 30%
same,inhibition (INH),[31],Not Active
same,Activity,Hepatocyte [32],Non-toxic
same,Activity,HepG2,Non-toxic
same,IC50,Cytochrome P450 1A2,> 10000 nM
same,IC50,Cytochrome P450 2C19,> 10000 nM
same,IC50,Cytochrome P450 2C8,> 10000 nM
same,IC50,Cytochrome P450 2C9,> 10000 nM
same,IC50,Cytochrome P450 2D6,> 10000 nM
same,IC50,Cytochrome P450 3A4,> 10000 nM
same,microsomal CLint,[33],< 10 µL/min/mg
same,IC50,[34],150 nM
same,clearance,[19],13.3 mL/min/kg
same,AUC,[20],2400 ng·h/mL
CN1C(=O)N(Cc2cc(F)ccc2F)C(=O)C12C(=O)N(CC(=O)O)c1ccc(Cl)cc12 (stereo not drawn),Ki,[1],390 nM
CN1C(=O)N(Cc2nc3ccccc3s2)C(=O)C12C(=O)N(CC(=O)O)c1ccc(Cl)cc12 (stereo not drawn),Ki,[1],750 nM
